Test results as given in patent publication US9376391B2, “Difluoromethyl-nicotinic-tetrahydronaphthyl carboxamides as fungicides” (BAYER CROPSCIENCE AKTIENGESELLSCHAFT, priority 2012, dated 2016).

Columns and labels:
[1] = system: Puccinia recondita; assay: In vivo preventive test on Puccinia recondita (brown rust on wheat); conditions: wheat, spray, graded 12 days after contamination vs control plants
Protocol: In Vivo Preventive Test on Puccinia recondita (Brown Rust on Wheat) […] Wheat plants (“Scipion” variety), sown in starter cups on a 50/50 peat soil-pozzolana substrate and grown at 22° C., are treated at the 1-leaf stage (10 cm height) by spraying with the active ingredient prepared as described above. Plants, used as controls, are treated with the mixture of acetone/tween/DMSO/water not containing the active material. After 24 hours, the plants are contaminated by spraying the leaves with an aqueous suspension of Puccinia recondita spores (100 000 spores per ml). The spores are collected from an infected plant and are suspended in water containing 2.5 ml/1 of Tween 80 at 10%. The contaminated wheat plants are incubated for 24 hours at 20° C. and at 100% relative humidity, and then for 10 days at 20° C. and at 70-80% relative humidity. Grading (% of efficacy) is carried out 12 days after the contamination, in comparison with the control plants.

[2] = system: Botrytis cinerea; assay: In vivo preventive test on Botrytis cinerea (grey mould), gherkin plants; conditions: gherkin, spray, graded 4 to 5 days after contamination vs control plants
Protocol: In Vivo Preventive Test on Botrytis cinerea (Grey Mould)
(§1) The active ingredients tested are prepared by homogenization in a mixture of acetone/tween/DMSO and then diluted with water to obtain the desired active material concentration.
(§2) Gherkin plants (“Vert petit de Paris” variety), sown in starter cups on a 50/50 peat soil-pozzolana substrate and grown at 24° C., are treated at the Z11 cotyledon stage by spraying with the active ingredient prepared as described above. Plants, used as controls, are treated with the mixture of acetone/tween/DMSO/water not containing the active material.
After 24 hours, the plants are contaminated by spraying the cotyledons with an aqueous suspension of cryopreserved Botrytis cinerea spores (50 000 spores per ml). The spores are suspended in a nutrient solution composed of 10 g/L of PDB, 50 g/L of D-Fructose, 2 g/L of NH4NO3 and 1 g/L of KH2PO4. The contaminated gherkin plants are incubated at 17° C. and at 90% relative humidity.
Grading (% of efficacy) is carried out 4 to 5 days after the contamination, in comparison with the control plants.

[3] = system: Uromyces appendiculatus; assay: In vivo preventive test on Uromyces appendiculatus (bean rust); conditions: preventive spray, bean plants, grading 11 days after contamination
Protocol: In Vivo Preventive Test on Uromyces appendiculatus (Bean Rust) […] Bean plants (“Saxa” variety), sown in starter cups on a 50/50 peat soil-pozzolana substrate and grown at 24° C., are treated at the 2-leaf stage (9 cm height) by spraying with the active ingredient prepared as described above. Plants, used as controls, are treated with the mixture of acetone/tween/DMSO/water not containing the active material. After 24 hours, the plants are contaminated by spraying the leaves with an aqueous suspension of Uromyces appendiculatus spores (150 000 spores per ml). The spores are collected from infected plants and are suspended in water containing 2.5 ml/1 of Tween 80 at 10%. The contaminated bean plants are incubated for 24 hours at 20° C. and at 100% relative humidity, and then for 10 days at 20° C. and at 70-80% relative humidity. Grading (% of efficacy) is carried out 11 days after the contamination, in comparison with the control plants.

[4] = log P by HPLC on reversed phase columns (EEC directive 79/831 Annex V.A8); assay type: physicochemical; conditions: Table 1, formula (I); HPLC/LC-MS at pH 2.7, 0.1% formic acid in water / acetonitrile, gradient 10% to 95%
[5] = system: Sphaerotheca fuliginea; assay: In vivo preventive test on Sphaerotheca fuliginea (powdery mildew on cucurbits); conditions: preventive spray, gherkin plants, grading 12 days after contamination
Protocol: In Vivo Preventive Test on Sphaerotheca fuliginea (Powdery Mildew on Cucurbits)
as §1, §2
After 24 hours, the plants are contaminated by spraying the cotyledons with an aqueous suspension of Sphaerotheca fuliginea spores (100 000 spores per ml). The spores are collected from infected plants. The contaminated gherkin plants are incubated at about 20° C. and at 70-80% relative humidity.
Grading (% of efficacy) is carried out 12 days after the contamination, in comparison with the control plants.

[6] = system: Septoria tritici; assay: In vivo preventive test on Septoria tritici (leaf spot on wheat); conditions: preventive spray, wheat plants, grading 24 days after contamination
Protocol: In Vivo Preventive Test on Septoria tritici (Leaf Spot on Wheat)
(§3) The active ingredients tested are prepared by homogenization in a mixture of acetone/tween/DMSO, and then diluted with water to obtain the desired active material concentration.
Wheat plants (“Scipion” variety), sown in starter cups on a 50/50 peat soil-pozzolana substrate and grown at 22° C., are treated at the 1-leaf stage (10 cm height) by spraying with the active ingredient prepared as described above. Plants, used as controls, are treated with the mixture of acetone/tween/DMSO/water not containing the active material.
After 24 hours, the plants are contaminated by spraying the leaves with an aqueous suspension of cryopreserved Septoria tritici spores (500 000 spores per ml). The contaminated wheat plants are incubated for 72 hours at 18° C. and at 100% relative humidity, and then for 21 days at 90% relative humidity.
Grading (% of efficacy) is carried out 24 days after the contamination, in comparison with the control plants.

[7] = system: Alternaria brassicae; assay: In vivo preventive test on Alternaria brassicae (leaf spot on radish); conditions: spray, graded 6 days after contamination vs control plants
Protocol: In Vivo Preventive Test on Alternaria brassicae (Leaf Spot on Radish)
as §3
Radish plants (“Pernod Clair” variety), sown in starter cups on a 50/50 peat soil-pozzolana substrate and grown at 17° C., are treated at the cotyledon stage by spraying with the active ingredient prepared as described above. Plants, used as controls, are treated with the mixture of acetone/tween/DMSO/water not containing the active material.
After 24 hours, the plants are contaminated by spraying the cotyledons with an aqueous suspension of Alternaria brassicae spores (50 000 spores per ml). The spores are collected from a 15-day-old culture. The contaminated radish plants are incubated at 20° C. and at 100% relative humidity.
Grading (% of efficacy) is carried out 6 days after the contamination, in comparison with the control plants.

[8] = system: Pyrenophora teres; assay: In vivo preventive test on Pyrenophora teres (net blotch on barley); conditions: dose 500 ppm; barley, spray, graded 14 days after contamination vs control plants
Protocol: In Vivo Preventive Test on Pyrenophora teres (Net Blotch on Barley)
as §3
Barley plants (“Plaisant” variety), sown in starter cups on a 50/50 peat soil-pozzolana substrate and grown at 22° C., are treated at the 1-leaf stage (10 cm height) by spraying with the active ingredient prepared as described above. Plants, used as controls, are treated with the mixture of acetone/tween/DMSO/water not containing the active material.
After 24 hours, the plants are contaminated by spraying the leaves with an aqueous suspension of Pyrenophora teres spores (12 000 spores per ml). The spores are collected from a 12-day-old culture. The contaminated barley plants are incubated for 48 hours at 20° C. and at 100% relative humidity, and then for 12 days at 20° C. at 70-80% relative humidity.
Grading (% of efficacy) is carried out 14 days after the contamination, in comparison with the control plants. plants.

Structure (SMILES)	Eff. % ([1]; dose 100 ppm) [%]	Eff. % ([2]; dose 100 ppm) [%]	Eff. % ([3]; 100 ppm) [%]	logP^[a] [4]	Eff. % ([1]; dose 500 ppm) [%]	Eff. % ([5]; 500 ppm) [%]	Eff. % ([6]; 500 ppm) [%]	Eff. % ([2]; dose 500 ppm) [%]	Eff. % ([3]; 500 ppm) [%]	Eff. % ([7]; dose 500 ppm) [%]	Eff. % ([5]; 100 ppm) [%]	Eff. % ([7]; dose 100 ppm) [%]	Eff. % [8] [%]	Eff. % ([6]; 100 ppm) [%]
CCC1(C)CC(C)c2c(NC(=O)c3cc(C)cnc3C(F)F)cccc21 (mixture of isomers) [Example 82]	94	80	88	3.94^[a]										
CC1CC2(CC2)c2cccc(NC(=O)c3cccnc3C(F)F)c21 (racemic) [Example 42]				3.00^[a]	100	89	79	99	100	83				
CCC1(CC)CC(C)c2c(NC(=O)c3cccnc3C(F)F)cccc21 (racemic) [Example 78]	100	98	100	4.01^[a]							98	80		
CC1CC(C)(C)c2c(C3CC3)ccc(NC(=O)c3cccnc3C(F)F)c21 (stereo not drawn) [Example 10]				3.79^[a]	100			100	99					
CC1CC(C)(C)c2c(F)ccc(NC(=O)c3cccnc3C(F)F)c21 (stereo not drawn) [Example 2]				3.35^[a]	100	100	100	97	100	98				
O=C(Nc1cccc2c1CCC21CC1)c1cccnc1C(F)F [Example 20]				2.78^[a]	94			90	100					
CC(C)(C)C1CCc2c(NC(=O)c3cccnc3C(F)F)cccc21 (racemic) [Example 39]				3.78^[a]	98	94	86		100				83	
Cc1ccc(NC(=O)c2cccnc2C(F)F)c2c1C(C)(C)CC2C (stereo not drawn) [Example 11]				3.41^[a]	98			99						
CC1c2c(cccc2NC(=O)c2cccnc2C(F)F)CC1(C)C (stereo not drawn) [Example 85]	97	98		3.29^[a]							100			79
CCC1OC(C)(C)c2cccc(NC(=O)c3cccnc3C(F)F)c21 (racemic) [Example 77]	98		100	2.39^[a]							98	75		93
CC1c2c(NC(=O)c3cccnc3C(F)F)cccc2C(C)(C)C1C (stereo not drawn) [Example 33]				3.48^[a]	100	100	100	97	100	100				
CCC1(CC)CC(C)c2c(NC(=O)c3cc(C)cnc3C(F)F)cccc21 (racemic) [Example 79]	89	80		4.31^[a]										
CCC1(CC)CC(C)c2c(NC(=O)c3ccc(Cl)nc3C(F)F)cccc21 (racemic) [Example 80]	94	70	91	4.72^[a]										
CC1(C)Cc2cccc(NC(=O)c3cccnc3C(F)F)c2C1 [Example 49]				3.06^[a]	100	100	86		100	89				
CC1c2cccc(NC(=O)c3cccnc3C(F)F)c2CC1(C)C (stereo not drawn) [Example 62]				3.35^[a]	100	98	100		100	100				
CCC1(CC)OC(C)c2c(NC(=O)c3cccnc3C(F)F)cccc21 (racemic) [Example 25]				2.86^[a]	98		86	96	100					
CCC1CC(C)c2c(NC(=O)c3cccnc3C(F)F)cccc21 (stereo not drawn) [Example 88]	88	89		3.37^[a]										
CC1Cc2c(NC(=O)c3cccnc3C(F)F)cccc2C1C (stereo not drawn) [Example 36]				3.06^[a]	98				100				75	
